Experimental findings from US20180219160A1, “BENZOBIS(THIADIAZOLE) DERIVATIVE, INK COMPRISING THE SAME, AND ORGANIC ELECTRONIC DEVICE USING THE SAME” (UBE INDUSTRIES, LTD., priority 2014, published 2018) are described below.

A short description of data set [1]: Evaluation of solubility in organic solvents (visual observation of complete dissolution). The format is physicochemical. The protocol:
[Evaluation of Solubility] The evaluation of the solubility of the synthesized compound was conducted by the following method.
About 2-3 mg of the synthesized compound was precisely weighed, and each solvent was added to the compound such that a predetermined concentration of the solute (0.3 wt %, 0.2 wt %, 0.1 wt %) was reached. The resultant mixture was stirred for 30 minutes at a predetermined temperature, and then it was evaluated by visual appearance observation whether or not the solute (synthesized compound) was completely dissolved in the solvent, which was the result of the evaluation of the solubility. As the solvent, chloroform (boiling point 61° C.), toluene (boiling point 111° C.), anisole (boiling point 154° C.), mesitylene (boiling point 165° C.), ortho-dichlorobenzene (boiling point 181° C.) and 1-methylnaphthalene (boiling point 241° C.) were used.

Data set [2] in a line: Thermal weight loss analysis (initial decomposition temperature). The format is physicochemical.
Where [3] appears, read: 1-methylnaphthalene, room temperature (25° C.).
Where [4] appears, read: chloroform, room temperature (25° C.).
The mark [5] stands for this setting: mesitylene, room temperature (25° C.).

With `CCCCCCN1C(=O)c2cc(-c3c4c(c(-c5cc6c(s5)C(=O)N(CCCCCC)C6=O)c5nsnc35)N=S=N4)sc2C1=O` [Compound (12-6)], the “solubility (concentration completely dissolved)” value (shortened to “solubility”) in data set [1] (setting [3]) was not below 0.1 wt %; in data set [1] (setting [4]) it was not below 0.2 wt %; in data set [1] (mesitylene, 80° C.), not below 0.3 wt %; in data set [1] (toluene, 80° C.), not below 0.3 wt %. In data set [2], this molecule came in with an initial decomposition temperature of 364 °C.
Take `CCCCCCCCN1C(=O)c2cc(-c3c4c(c(-c5cc6c(s5)C(=O)N(CCCCCCCC)C6=O)c5nsnc35)N=S=N4)sc2C1=O` [Compound (12-8)]: the “solubility” value in data set [1] (setting [3]) is listed as not below 0.3 wt %; in data set [1] (setting [4]), not below 0.2 wt %; in data set [1] (setting [5]), not below 0.3 wt %; in data set [1] (toluene, room temperature (25° C.)), not below 0.3 wt %. Besides, the initial decomposition temperature in data set [2] worked out at 367 °C.
Turning to `CCCCCCCCCCCCN1C(=O)c2cc(-c3c4c(c(-c5cc6c(s5)C(=O)N(CCCCCCCCCCCC)C6=O)c5nsnc35)N=S=N4)sc2C1=O` [Compound (12-12)], the “solubility” value in data set [1] (setting [4]) is not below 0.1 wt %; in data set [1] (mesitylene, 60° C.), not below 0.3 wt %; in data set [1] (toluene, 60° C.) it was not below 0.3 wt %. Besides, the initial decomposition temperature in data set [2] was determined as 360 °C.
In the case of `CCCCC(CC)CN1C(=O)c2cc(-c3c4c(c(-c5cc6c(s5)C(=O)N(CC(CC)CCCC)C6=O)c5nsnc35)N=S=N4)sc2C1=O` (stereo not drawn) [Compound (12-EH)], the “solubility” value was not below 0.3 wt % in data set [1] (setting [3]); not below 0.2 wt % in data set [1] (setting [4]); not below 0.3 wt % in data set [1] (mesitylene, 80° C.); not below 0.3 wt/o in data set [1] (ortho-dichlorobenzene, room temperature (25° C.)); not below 0.3 wt % in data set [1] (toluene, 60° C.). In data set [2], this molecule came in with an initial decomposition temperature of 369 °C.
On to `O=C1c2cc(-c3c4c(c(-c5cc6c(s5)C(=O)N(CC(F)(F)C(F)(F)C(F)(F)F)C6=O)c5nsnc35)N=S=N4)sc2C(=O)N1CC(F)(F)C(F)(F)C(F)(F)F` [Compound (12-HepFBu)], for which the “solubility” value in data set [1] (anisole, room temperature (25° C.)) is recorded as not below 0.1 wt %; in data set [1] (setting [4]) it was not below 0.1 wt %; in data set [1] (setting [5]) it was not below 0.1 wt %. In addition, the initial decomposition temperature in data set [2] was 367 °C.
For `CN1C(=O)c2cc(-c3c4c(c(-c5cc6c(s5)C(=O)N(C)C6=O)c5nsnc35)N=S=N4)sc2C1=O` [Compound (12-Me)], the initial decomposition temperature in data set [2] was 367 °C.
On to `CN1C(=O)c2cc3cc(-c4c5c(c(-c6cc7cc8c(cc7s6)C(=O)N(C)C8=O)c6nsnc46)N=S=N5)sc3cc2C1=O` [Compound (22-1)], for which, in data set [2], the initial decomposition temperature was 475 °C.
Molecule `CCCCCCN1C(=O)c2cc3cc(-c4c5c(c(-c6cc7cc8c(cc7s6)C(=O)N(CCCCCC)C8=O)c6nsnc46)N=S=N5)sc3cc2C1=O` [Compound (22-6)] returned an initial decomposition temperature in data set [2] of 405 °C.
